Results: BigSolDB 2.1

O=C1CCC(=O)O1
solubility (mole fraction)
Conditions	278.15 K	283.15 K	288.15 K	293.15 K	298.15 K	303.15 K
in acetone	0.0721	0.0863	0.103	0.121	0.143	0.166
in acetonitrile	0.114	0.121	0.129	0.137	0.146	0.156
in ethyl acetate	0.0485	0.0544	0.0611	0.0684	0.0771	0.0853
in isopropanol	0.0502	0.0562	0.0632	0.0705	0.0793	0.0889
